Data reported in patent US5595973A, “Protection of hemopoietic cells during chemotherapy or radiotherapy” (Biomeasure Incorporated, priority 1994, dated 1997).
Where a SMILES comes first, the peptide text is derived from it.

How the values were obtained:
Assay type in all cases: in vivo, BALB/C mice
polymorphonuclear cells = assay: Polymorphonuclear cell counts in mice during three cycles of Ara-C chemotherapy
Procedure: (§1) A number of assays were performed to show the effect of combining the hemopoiesis inhibitory factor and hemopoiesis growth factor on the proliferation of hemopoietic cells during chemotherapy.
(§2) Three groups of BALB/C mice were used in this study. Mice of the three groups were treated as follows (i.e., with Ara-C, the abbreviation of cytosine arabinoside, as the cytotoxic agent, AcSDKP as the hemopoiesis inhibitory factor, and GM-CSF as the hemopoiesis growth factor):
(§3) In each group, the animals were subjected to a sequence of three cycles of chemotherapy, i.e., Cycle I (Days 0-20), Cycle II (Days 21-37), and Cycle III (Days 38-56). Note that animals in each group were sacrificed on specific days for collection of blood samples, eliminating the artifact that may have been induced by intensive repetitive bleedings of the same animals.
(§4) Minipump implantations and excisions: The 200 μl capacity ALZET™ osmotic minipump Model 2001 (Alza Corporation, Palo Alto, Calif.) primed to deliver 1.0 μL/hour for 7 days was used for continuously administering the 100 ng/hour of AcSDKP in each cycle. More specifically, during each cycle, AcSDKP primed pumps were implanted s.c. prior to the first administration of Ara-C in the A.M. of day zero and excised in the A.M. of day 7. The first administration of Ara-C was in the A.M. of day zero and the last administration in the A.M. of day 6 (q.d., or once per day).
(§5) Treatment cycle: For the animals of Group 3, each cycle consists of a period in which Ara-C and AcSDKP were administered, a period in which the administered Ara-C and AcSDKP were purged, a period in which GM-CSF was administered, and, finally, a further recovery period. More specifically, after 7 consecutive days of Ara-C treatment during which time AcSDKP was administered by continuous s.c. infusion (see the preceding paragraph), a 2-day period followed so as to allow for purging of both AcSDKP and Ara-C. GM-CSF was then administered for 4 days (b.i.d., or twice per day), and the animals were permitted 4-8 more days at the end of the GM-CSF administration to recover before the initiation of the subsequent cycle (as in Cycles I and II) or before the collection of the last blood samples (as in Cycle III).
(§6) Blood sample collection: Blood samples (maximum attainable volume) for clinical pathology evaluations were collected from mice at euthanasia. The mice were food-fasted overnight prior to blood collection and samples were collected by puncture of the retro-orbital sinus after anesthetization by CO2 inhalation.
(§7) Analysis of blood samples: Hematology data were collected electronically and processed by the HUMMINGBIRD™ computer system (Laboratories Consulting, Inc., Madison, Wis.). Blood samples were processed and evaluated for the parameters specified (polymorphonuclear cell, platelet, and white blood cell counts in 10^3 cells/[…] as shown in Tables 2 and 3) using a Sysmex TOAE-2500 hematology analyzer (TOA Medical Electronics, Kobe, Japan).
(§8) The data in Table 2 (as well as in Table 3) are log transformed to minimize the effect of outliers and the geometric means of the data are used for the analyses. The difference in the means between two test groups are compared for each of three different stages, i.e., chemotherapy (days 0-4, 21-25 and 38-42 in Cycles I, II and III, respectively), nadir (days 5-10, 26-31 and 43-48 in Cycles I, II and III, respectively), or recovery (days 11-20, 32-37 and 49-56 in Cycles I, II and III, respectively). Significant differences are marked by a large dot, which stands for P<0.003, a statistically significant p-value for data compared between two groups combined over the three cycles.

platelets = assay: Platelet counts in mice during three cycles of Ara-C chemotherapy
Procedure: as §1, §2, §3, §4, §5, §6, §7
as §8, with “See the right-hand column "percent change," i.e., (cell count from Group 2/cell count from Group 1)×100%, in Table 2. The data” for “The data”

white blood cells = assay: White blood cell counts in mice during three cycles of Ara-C chemotherapy
Procedure: as §1, §2, §3, §4, §5, §6, §7
as §8, with “See the right-hand column "percent change," i.e., (cell count from Group 2/cell count from Group 1)×100%, in Table 2. The data” for “The data”

hemopoietic cells = assay: Proliferation of hemopoietic cells and tolerance of multiple cycles of Ara-C chemotherapy
Procedure: as §1, §2, §3, §4
Treatment cycle: For the animals of Group 3, each cycle consists of a period in which Ara-C and AcSDKP were administered, a period in which the administered Ara-C and AcSDKP were purged, a period in which GM-CSF was administered, and, finally, a further recovery period. More specifically, after 7 consecutive days of Ara-C treatment during which time AcSDKP was administered by continuous s.c. infusion (see the preceding paragraph), a 2-day period followed so as to allow for purging of both AcSDKP and Ara-C. […]

[1] = Group 2 (Ara-C+GM-CSF) vs Group 1 (Ara-C), Cycle I, Chemotherapy (days 0-4)
[2] = Group 2 (Ara-C+GM-CSF) vs Group 1 (Ara-C), Cycle I, Nadir (days 5-10)
[3] = Group 2 (Ara-C+GM-CSF) vs Group 1 (Ara-C), Cycle I, Recovery (days 11-20)
[4] = Group 2 (Ara-C+GM-CSF) vs Group 1 (Ara-C), Cycle II, Chemotherapy (days 21-25)
[5] = Group 2 (Ara-C+GM-CSF) vs Group 1 (Ara-C), Cycle II, Nadir (days 26-31)
[6] = Group 2 (Ara-C+GM-CSF) vs Group 1 (Ara-C), Cycle II, Recovery (days 32-37)
[7] = Group 2 (Ara-C+GM-CSF) vs Group 1 (Ara-C), Cycle III, Chemotherapy (days 38-42)
[8] = Group 2 (Ara-C+GM-CSF) vs Group 1 (Ara-C), Cycle III, Nadir (days 43-48)
[9] = Group 2 (Ara-C+GM-CSF) vs Group 1 (Ara-C), Cycle III, Recovery (days 49-56)
[10] = Group 3 (Ara-C+AcSDKP+GM-CSF) vs Group 2 (Ara-C+GM-CSF), Cycle I, Chemotherapy (days 0-4)
[11] = Group 3 (Ara-C+AcSDKP+GM-CSF) vs Group 2 (Ara-C+GM-CSF), Cycle I, Nadir (days 5-10)
[12] = Group 3 (Ara-C+AcSDKP+GM-CSF) vs Group 2 (Ara-C+GM-CSF), Cycle I, Recovery (days 11-20), marked significant
[13] = Group 3 (Ara-C+AcSDKP+GM-CSF) vs Group 2 (Ara-C+GM-CSF), Cycle II, Chemotherapy (days 21-25)
[14] = Group 3 (Ara-C+AcSDKP+GM-CSF) vs Group 2 (Ara-C+GM-CSF), Cycle II, Nadir (days 26-31)
[15] = Group 3 (Ara-C+AcSDKP+GM-CSF) vs Group 2 (Ara-C+GM-CSF), Cycle II, Recovery (days 32-37), marked significant
[16] = Group 3 (Ara-C+AcSDKP+GM-CSF) vs Group 2 (Ara-C+GM-CSF), Cycle III, Chemotherapy (days 38-42)
[17] = Group 3 (Ara-C+AcSDKP+GM-CSF) vs Group 2 (Ara-C+GM-CSF), Cycle III, Nadir (days 43-48)
[18] = Group 3 (Ara-C+AcSDKP+GM-CSF) vs Group 2 (Ara-C+GM-CSF), Cycle III, Recovery (days 49-56), marked significant

GM-CSF: granulocyte/macrophage-colony stimulating factor, the hemopoiesis growth factor, procured from Immunix Research and Development Corp.
Percent change, polymorphonuclear cell count (polymorphonuclear cells; [1]): -0.2001%
Percent change, polymorphonuclear cell count (polymorphonuclear cells; [2]): 23.1962%
Percent change, polymorphonuclear cell count (polymorphonuclear cells; [3]): 21.7299%
Percent change, polymorphonuclear cell count (polymorphonuclear cells; [4]): 19.8969%
Percent change, polymorphonuclear cell count (polymorphonuclear cells; [5]): 9.4827%
Percent change, polymorphonuclear cell count (polymorphonuclear cells; [6]): -10.9401%
Percent change, polymorphonuclear cell count (polymorphonuclear cells; [7]): 29.7855%
Percent change, polymorphonuclear cell count (polymorphonuclear cells; [8]): 1.6526%
Percent change, polymorphonuclear cell count (polymorphonuclear cells; [9]): -0.7213%
Percent change, platelet count (platelets; [1]): 30.5966%
Percent change, platelet count (platelets; [2]): 0.0332%
Percent change, platelet count (platelets; Group 2 (Ara-C+GM-CSF) vs Group 1 (Ara-C), Cycle I, Recovery (days 11-20), marked significant): 10.6804%
Percent change, platelet count (platelets; [4]): 0.5878%
Percent change, platelet count (platelets; [5]): 0.0259%
Percent change, platelet count (platelets; Group 2 (Ara-C+GM-CSF) vs Group 1 (Ara-C), Cycle II, Recovery (days 32-37), marked significant): 20.4577%
Percent change, platelet count (platelets; [7]): 15.5436%
Percent change, platelet count (platelets; [8]): 14.0708%
Percent change, platelet count (platelets; Group 2 (Ara-C+GM-CSF) vs Group 1 (Ara-C), Cycle III, Recovery (days 49-56), marked significant): 11.9135%
Platelet counts, change in words (platelets; Group 2 (Ara-C+GM-CSF) vs Group 1 (Ara-C), recovery periods, three cycles combined, p=0.0003): significantly increased
Percent change, white blood cell count (white blood cells; [1]): -9.1838%
Percent change, white blood cell count (white blood cells; [2]): 17.5916%
Percent change, white blood cell count (white blood cells; [3]): 5.3418%
Percent change, white blood cell count (white blood cells; [4]): 43.1551%
Percent change, white blood cell count (white blood cells; [5]): 40.2987%
Percent change, white blood cell count (white blood cells; [6]): -7.2022%
Percent change, white blood cell count (white blood cells; [7]): 7.717%
Percent change, white blood cell count (white blood cells; [8]): -9.5103%
Percent change, white blood cell count (white blood cells; [9]): -0.8913%
White blood cell counts, change in words (white blood cells; Group 2 (Ara-C+GM-CSF) vs Group 1 (Ara-C), recovery period of Cycles II and III): decreased
Ability of the animals to tolerate multiple cycles of chemotherapy (hemopoietic cells; Group 2 (Ara-C+GM-CSF) vs Group 1 (Ara-C)): did not enhance

CC(=O)N[C@@H](CO)C(=O)N[C@@H](CC(=O)O)C(=O)N[C@@H](CCCCN)C(=O)N1CCC[C@H]1C(=O)O [AcSDKP, N-Acetyl-Ser-Asp-Lys-Pro] (Ac-SDKP-OH)
Percent change, polymorphonuclear cell count (polymorphonuclear cells; [10]): -66.466%
Percent change, polymorphonuclear cell count (polymorphonuclear cells; [11]): -27.344%
Percent change, polymorphonuclear cell count (polymorphonuclear cells; [12]): 52.314%
Percent change, polymorphonuclear cell count (polymorphonuclear cells; [13]): -44.682%
Percent change, polymorphonuclear cell count (polymorphonuclear cells; [14]): 130.128%
Percent change, polymorphonuclear cell count (polymorphonuclear cells; [15]): 100.223%
Percent change, polymorphonuclear cell count (polymorphonuclear cells; [16]): 37.246%
Percent change, polymorphonuclear cell count (polymorphonuclear cells; [17]): 42.105%
Percent change, polymorphonuclear cell count (polymorphonuclear cells; [18]): 95.829%
Polymorphonuclear cell counts, change in words (polymorphonuclear cells; Group 3 (Ara-C+AcSDKP+GM-CSF) vs Group 2 (Ara-C+GM-CSF), recovery periods, p=<0.0001): significantly increased
Percent change, platelet count (platelets; [10]): -53.4439%
Percent change, platelet count (platelets; Group 3 (Ara-C+AcSDKP+GM-CSF) vs Group 2 (Ara-C+GM-CSF), Cycle I, Nadir (days 5-10), marked significant): 20.9005%
Percent change, platelet count (platelets; Group 3 (Ara-C+AcSDKP+GM-CSF) vs Group 2 (Ara-C+GM-CSF), Cycle I, Recovery (days 11-20)): 23.6811%
Percent change, platelet count (platelets; [13]): 29.203%
Percent change, platelet count (platelets; Group 3 (Ara-C+AcSDKP+GM-CSF) vs Group 2 (Ara-C+GM-CSF), Cycle II, Nadir (days 26-31), marked significant): 49.9274%
Percent change, platelet count (platelets; Group 3 (Ara-C+AcSDKP+GM-CSF) vs Group 2 (Ara-C+GM-CSF), Cycle II, Recovery (days 32-37)): 13.851%
Percent change, platelet count (platelets; [16]): 36.6101%
Percent change, platelet count (platelets; Group 3 (Ara-C+AcSDKP+GM-CSF) vs Group 2 (Ara-C+GM-CSF), Cycle III, Nadir (days 43-48), marked significant): 32.1586%
Percent change, platelet count (platelets; Group 3 (Ara-C+AcSDKP+GM-CSF) vs Group 2 (Ara-C+GM-CSF), Cycle III, Recovery (days 49-56)): -0.7018%
Platelet counts, change in words (platelets; Group 3 (Ara-C+AcSDKP+GM-CSF) vs Group 2 (Ara-C+GM-CSF), nadir periods, p=0.0006): significantly increased
Percent change, white blood cell count (white blood cells; [10]): -39.0687%
Percent change, white blood cell count (white blood cells; [11]): -47.8669%
Percent change, white blood cell count (white blood cells; [12]): 29.1779%
Percent change, white blood cell count (white blood cells; [13]): -57.7294%
Percent change, white blood cell count (white blood cells; [14]): -10.6607%
Percent change, white blood cell count (white blood cells; [15]): 44.2989%
Percent change, white blood cell count (white blood cells; [16]): 19.207%
Percent change, white blood cell count (white blood cells; [17]): -9.4556%
Percent change, white blood cell count (white blood cells; [18]): 50.2142%
White blood cell counts, change in words (white blood cells; Group 3 (Ara-C+AcSDKP+GM-CSF) vs Group 2 (Ara-C+GM-CSF), recovery periods, p=0.0001): significantly increased
Blood cell levels, effect of AcSDKP present during chemotherapy (hemopoietic cells; Group 3 (Ara-C+AcSDKP+GM-CSF) vs Group 2 (Ara-C+GM-CSF)): contributed to subsequent enhancement of blood cell levels by GM-CSF
Ability to tolerate multiple cycles of chemotherapy (hemopoietic cells; combined use of AcSDKP and GM-CSF with Ara-C (Group 3)): allows multiple cycles of chemotherapy
